“Also recorded” adds a separate entry of the source.
Columns and labels:
sPLA2-IIA = target: T1, sPLA2-IIA (Homo sapiens, UniProt P14555); test: sPLA2 enzyme activity assay, Group IIA; type: biochemical; details: recombinant human sPLA2-IIA, data not shown
T1 sequence (P14555 21-144): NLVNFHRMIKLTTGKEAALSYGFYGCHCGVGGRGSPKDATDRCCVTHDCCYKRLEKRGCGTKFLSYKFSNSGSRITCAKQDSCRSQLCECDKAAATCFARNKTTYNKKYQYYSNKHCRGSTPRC
Method: Recombinant human sPLA2 isoforms, Group IB, Group IIA, Group V, and Lp-PLA2 were obtained from R&D Systems and Cayman Chemical Co. sPLA2 enzyme activities in the presence of various concentrations of morelloflavone or other inhibitors were determined using a commercially available assay system according to the manufacturer's instructions (Cayman Chemical Co.). Thioetheramide-1-palmitylthio-2-palmitoylamido-1,2-dideoxy-sn-glycero-3-phosphorylcholine (T-PC) and methyl arachidonyl fluorophosphonate (MAFP) were used as inhibitors of sPLA2 (IB, IIA, and V) and Lp-PLA2, respectively, per manufacturers' instructions.

Ldlr−/−Apobec1−/− mice = test: Analysis of atherosclerotic lesions (en-face and cross-sectional); type: in vivo, mouse; details: 8 months
Method: As a model of in vivo athereosclerosis, mice that lack the low density lipoprotein (LDL) receptor and Apobec 1 genes (Ldlr^−/−Apobec1^−/−) were used. The Ldlr^−/−Apobec1^−/− mice were generated by crossbreeding Ldlr^−/− mice (Jackson Lab, Bar Harbor, Me.) and Apobec1^−/− mice (Dr. Lawrence Chan, Baylor College of Medicine). Genotyping was performed in standard PCR-based methods, using following primer sets: For Apobec1, 5′-TGAGTGAGTGGTGGTGGTAAAG-3′ (SEQ ID NO: 1) and 5′-CGAAATTCCTCCAGCAGTAAC-3′ (SEQ ID NO: 2) where […] and […] mice would have 475 by amplicon while Apobec1^−/− have none. For Ldlr, 5′-ACCCCAAGACGTGCTCCCAGGATGA-3′ (SEQ ID NO: 3), 5′-CGCAGTGCTCCTCATCTGACTTGT-3′ (SEQ ID NO: 4), 5′-AGGATCTCGTCGTGACCCATGGCGA-3′ (SEQ ID NO: 5), and 5′-GAGCGGCGATACCGTAAAGCACGAGG-3′ (SEQ ID NO: 6) where Ldlr^+/+ mice would yield 383 bp amplicon, while Ldlr^−/− 200 bp and […] amplicons, respectively.
Twenty four (24) 8 week old Ldlr^−/−Apobec1^−/− mice were randomly assigned to either control group (normal rodent chow, Lab Diet, Richmond, Ind., N=12) or morelloflavone group (normal rodent chow supplemented with 0.003% (w/w) morelloflavone, N=12). The 0.003% (w/w) morelloflavone corresponds to approximately 4 mg/kg morelloflavone for 30 gram animals that consume 4 grams of chow. Animals were housed individually in an air-conditioned room with 12-h light/dark cycle with access to food and water. Body weight of these mice was monitored monthly. After 8 months, animals were sacrificed for analyses of atherosclerosis. Just prior to the sacrifice, blood was sampled from the heart and collected into micro-centrifuge tubes containing EDTA. The entire aortae were excised. All animal experimentation protocols were performed according to the protocol approved by the Institutional Animal Care and Use Committee (IACUC) of the University of Texas Health Science Center at Houston, in accordance with the National Institutes of Health guidelines.
The aortae and hearts were excised en bloc. The extent and degree of atherosclerosis was quantified by both en-face analyses of atherosclerosis lesions and the intimal areas of the ascending aortae at the level of aortic valve leaflet. For en-face analysis of atherosclerotic areas, the distal portion of the ascending aortae, aortic arches, and descending aortae down to the liac bifurcations were pinned flat on a white wax surface, fixed with 10% (v/v) buffered formalin solution overnight, stained by freshly prepared and filtered Oil red O solution for 1 hr, rinsed twice with 78% methanol, mounted and dried on the glass slides, and scanned in the TIFF format using the ScanScope slide scanning system (Nikon, Melville, N.Y.). The planimetry of the entire surface areas and Oil red O-positive atherosclerotic lesion areas was performed on the scanned images using Sigma Scan Pro software (SPSS Science, Chicago, Ill.).
For the cross sectional analyses of atherosclerosis, the roots of the ascending aortae were embedded in OCT compound (Tissue-Tek®, Sakura-Fineteck U.S.A., Torrance, Calif.). […] In both methods of atherosclerosis quantification, the images of aortae were digitally captured and stored in the TIFF format, using the ScanScope slide scanning system (Nikon, Melville, N.Y.). The quantification of the atherosclerotic area was performed by Image J software (NIH, Bethesda, Md.) and expressed at lesion areas (μm^2).

[1] = test system: vascular smooth muscle cells; test: DNA fragmentation (apoptosis) assay; type: cell-based
Method: Mouse vascular smooth muscle cells, isolated as described (13), were maintained in 231 media (Cascade Biologics, Portland, Oreg.) supplemented with SMGS (Cascade Biologics) in a humidified incubator at 37° C. with 5% CO2. Cells from passages 4-9 were used in all experiments. All experiments were performed in subconfluent, unsynchronized cells growing in SMGS except for the lamellipodium formation assay.
Vascular smooth muscle cells were seeded at 1×10^5 cells per well in 24-well culture plates, treated with morelloflavone, and subjected to DNA fragmentation assay, according to the manufacturer's instructions (Cell Death Detection ELISAPLUS, Roche). Briefly, the cells were treated with […] of morelloflavone for 24 hrs. The 1×10^5 cells were lysed, cleared by centrifugation, and transferred into streptavidin-coated plates. Anti-histone antibody conjugated to biotin and anti-nucleosomal-DNA-antibody conjugated to horseradish peroxidase were added. After incubation and washing, 2,2′-azino-bis-[3-ethylbenzthiazoline-6-sulfonic acid] (ABTS) substrate solution was added. The 5 absorbance rate at 405 nm against ABTS solution was measured with the reference wavelength of 490 nm.

In the case of O=C1c2c(O)cc(O)cc2O[C@H](c2ccc(O)cc2)[C@H]1c1c(O)cc(O)c2c(=O)cc(-c3ccc(O)c(O)c3)oc12 [morelloflavone, 5,7, 4′, 5″, 7″, 3″, 4″-heptahydroxy-[3,8″]-flavonylflavanone], the IC50 (sPLA2-IIA) is reported as over 10 µM, the “atherosclerotic surface area, en-face analysis” value (Ldlr−/−Apobec1−/− mice; 0.003% (w/w) diet (0.03%), male Ldlr−/−Apobec1−/− mice) is reported as 24.9±6.9 % of the total aortic surface area and the “atherosclerotic lesion area, cross-sectional analysis at aortic valve” value (Ldlr−/−Apobec1−/− mice; 0.003% diet) is reported as 5.65±1.05 ×10^3 μm^2. The “reduction of cross-sectional lesion area vs control” value (Ldlr−/−Apobec1−/− mice; 0.003% diet) was 26%, the “reduction of en-face atherosclerotic area vs control” value (Ldlr−/−Apobec1−/− mice; 0.003% diet) was 26% and the “total area affected by atherosclerosis compared with control mice (en face)” value (Ldlr−/−Apobec1−/− mice; 0.003% morelloflavone-containing diet) was “substantially lower”. The “DNA fragmentation indices, trend with concentration” value ([1]; 0, 1, 10, 100 mM) was “decreased as morelloflavone concentrations increased” and the “apoptosis / induction of DNA fragmentation” value ([1]; concentrations equal to or less than 100 mM, 24 hrs) was “did not induce DNA fragmentation; also recorded: does not cause apoptosis; also recorded: does not induce cytotoxicity”.
